Data as given in patent US20240350456A1, “COMPOSITIONS AND METHODS FOR DIAGNOSING AND TREATING INFLAMMATORY CONDITIONS” (RUTGERS, THE STATE UNIVERSITY OF NEW JERSEY, priority 2023, published 2024).

How the values were obtained:
[1] = tested on: Tff3 and Lyz1 (goblet and Paneth cells); assay: Organoids: goblet and Paneth cell transcripts (Tff3, Lyz1) and cell numbers; format: cell-based, mouse; details: enteroids
Experimental: We had 2 series of metabolite-treated organoid experiments, i.e., 1) organoid from conventional C57BL6 mice and 2) Ocln KO and littermate WT control as a gift from Prof. Jerrold Turner (Harvard University). […] Seeding is designated as day 0. On day 3 of culture, the existing media in the wells were completely removed before adding treatments. LPS (1 μg/mL) with or without metabolites, i.e., IPA (0.1 mM) (Li et al., 2021), IAM (200 μM) (Vyhlidalova et al., 2020), MNA (12 ng/ml) (Liu et al., 2015), CARN (20 mM) (Boldyrev et al., 2013) or ASA (1 μM) (Erez et al., 2011) were each added in CCM at known physiological concentrations, incubated for 48 hours, thereafter, organoid was harvested for RNA extraction, and paraformaldehyde fixation for immunostaining.
Total RNA was extracted from the intestinal organoids using a commercially available kit (RNeasy Microkit; Qiagen, MD, Cat. #74004) following manufacturer's instructions. mRNA samples were converted to cDNA using Bio-Rad's iScript Reverse Transcription Supermix for RT-qPCR (Bio-Rad Laboratories, Hercules, CA, Cat. #1708840). cDNA was then used for RT-qPCR (Mx3000P. Stratagene, La Jolla, CA) to analyze several genes using Maxima SYBR Green qPCR Master Mix (Thermo Fisher Scientific, Waltham, MA) and primers (Integrated DNA Technologies, Coralville, IA). Thermal profile for three-step cycling was 10 min at 95° C. for initial denaturation; then 40 cycles of 15 sec at 95° C. for denaturation, 30 sec at 65° C. for annealing, and 30 sec at 75° C. for extension. Primers used are as follows: β-actin (Actb), forward 5′-[…]-3′ (SEQ ID NO: 5), reverse 5′-[…]-3′ (SEQ ID NO: 6); ZO-1 (Tjp1), forward 5′-[…]-3′ (SEQ ID NO: 7), reverse 5′-[…]-3′ (SEQ ID NO: 8), Ocln, forward 5′-[…]-3′ (SEQ ID NO: 9), reverse 5′-[…]-3′ (SEQ ID NO: 10); Lyz1, forward 5′-ATGGCTACCGTGGTGTCAAG-3′ (SEQ ID NO: 11), reverse 5′-CGGTCTCCACGGTTGTAGTT-3′ (SEQ ID NO: 12); Tff3, forward 5′-TAATGCTGTTGGTGGTCCTG-3′ (SEQ ID NO: 13), reverse 5′-CAGCCACGGTTGTTACACTG-3′ (SEQ ID NO: 14). All samples were normalized to β actin expression. Gene expression levels are depicted as fold change relative to the control group.
Immunocytochemistry followed earlier work (Pearce et al., 2018). Briefly, organoids were extracted from Matrigel by using cell recovery solution (Corning, Cat. No. 354253), processed then fixed in 4% paraformaldehyde for 15 min and dehydrated with 70% ethanol and kept in 4° C. until embedded in paraffin. On the day of embedding, organoids were gently spun down to a pellet (250 g for 5 min), then the supernatant was removed, the pellet resuspended in agarose and embedded in paraffin. […]

[2] = tested on: human-derived Caco-2 cells; assay: In vitro transwell screening in Caco-2 cells, barrier disrupted by Clostridium difficile toxin (TEER and FITC-dextran permeability); format: cell-based
Description: FIG. 20A-20B. In vitro screening of metabolites effective against leaky gut. FIG. 20A, Diagram of the in vitro transwell method used to evaluate efficacy of metabolites in protecting the leaky gut in human-derived Caco-2 cells. The luminal compartment represents the food side, and the basolateral the blood side. FIG. 20B, Transepithelial electrical resistance (TEER) measurements, and FITC-dextran measurements, evaluate the leakiness of the tight junction that regulates the pore (top) and leak (bottom) pathways of the gut. Ions (red), small molecules (blue), FITC-dextran (orange).
FIG. 21A-21D. Efficacy of tryptophan and vitamin B3 metabolites in protecting the gut barrier in vitro. FIG. 21A, TEER measurements of metabolites placed on luminal side of transwells for 72 hours. After 48 hours, the barrier was disrupted by the toxin of clostrium difficile (Cdiff). FIG. 21B, Integrated results of area under the curve using data from FIG. 21A. FIG. 21C, FITC-dextran permeability analysis of metabolites applied luminally. FIG. 21D, FITC-dextran permeability analysis of metabolites applied basolaterally.
FIG. 22A-22B. Efficacy of microbiota-derived indole metabolites in protecting the gut barrier. FIG. 22A, Integrated results of TEER measurements of metabolites placed on luminal side of transwells for 72 hours. After 48 hours, the barrier was disrupted by the toxin of clostrium difficile (Cdiff) FIG. 22B, FITC-dextran permeability analysis of metabolites from FIG. 22A applied luminally.
To perform in vitro screening of the metabolites effective against leaky gut, an in vitro transwell method was used. (FIG. 20A) The efficacy of these metabolites in protecting the leaky gut was analyzed in human-derived Caco-2 cells. Transepithelial electrical resistance (TEER) measurements evaluates the leakiness of the tight junction that regulates the pore (FIG. 20B, top) and leak (FIG. 20B, bottom) pathways of the gut. The higher the TEER, the less permeable the junction is to the movement of ions and small molecules. FITC-dextran is a large polysaccharide with a fluorescent moiety, typically used as a probe to assess the leakiness of the tight junction to large molecules like dextran. The faster the movement of FITC-dextran from lumen to blood, the greater the permeability.
(FIG. 21A) There was no effect of these metabolites on TEER when applied by themselves. After 48 h, the barrier was disrupted by the toxin of a common “bad” bacteria Clostridium difficile (Cdiff). TEER plummeted with this toxin (TOX, red line) compared to control (Veh, blue line). […] (FIG. 21A)

| Structure (SMILES) | goblet and Paneth cell transcripts and cell numbers [1] | TEER, indole metabolites (FIG. 22A) ([2]; applied to the lumen, TOX) | integrated TEER (area under the curve, FIG. 21B) ([2]; luminal, C. difficile toxin) | TEER after C. difficile toxin (FIG. 21A) ([2]; metabolites on luminal side, toxin after 48 h) |
| --- | --- | --- | --- | --- |
| NC(=O)Cc1c[nH]c2ccccc12 [Indole-3-acetamide, indole-3-acetamide] | reduced goblet and Paneth cell transcripts as well as cell numbers | clearly protective against TOX-induced decreases in TEER | – | – |
| C[n+]1cccc(C(N)=O)c1 [Methylnicotinamide, 1-methynicotinamide] | reduced goblet and Paneth cell transcripts as well as cell numbers | – | protected the cells from barrier disruption by TOX | best at preventing the toxin-induced disruption of the barrier |
